# Assay results taken from patent US20200246485A1, “METHOD FOR GENERATING A DIHYDROMYRICETIN (DHM) FORMULATION” (82 LABS INC, priority 2019, published 2020).
# Read-outs that look alike come from different tables or passages of the source.
# Columns and labels:
# [1] = cited from earlier work
# physchem = details: 25° C.
# DHM solubility in water = type: physicochemical
# [2] = at 25° C.; background; cited from earlier work
# [3] = in words; cited from earlier work
smiles,measurement,setting,value
"OC[C@H]1O[C@@H]2O[C@H]3[C@H](O)[C@@H](O)[C@@H](O[C@H]4[C@H](O)[C@@H](O)[C@@H](O[C@H]5[C@H](O)[C@@H](O)[C@@H](O[C@H]6[C@H](O)[C@@H](O)[C@@H](O[C@H]7[C@H](O)[C@@H](O)[C@@H](O[C@H]8[C@H](O)[C@@H](O)[C@@H](O[C@H]1[C@H](O)[C@H]2O)O[C@@H]8CO)O[C@@H]7CO)O[C@@H]6CO)O[C@@H]5CO)O[C@@H]4CO)O[C@@H]3CO [β-Cyclodextrin, β-cyclodextrin]",pKa value (25° C.),[1],12.202
"O=C1c2c(O)cc(O)cc2O[C@H](c2cc(O)c(O)c(O)c2)[C@H]1O [DHM, (2R,3R)-3,5,7-trihydroxy-2-(3,4,5-trihydroxyphenyl)-2,3-dihydrochromen-4-one]",solubility,physchem,700 µg/mL
same,solubility,DHM solubility in water; 100° C. (hot water),15500 µg/mL
same,solubility,"DHM solubility in water; water, 25 °C, water, 25° C. (room temperature), read-out: Solubility",700 µg/mL
same,solubility,"DHM solubility in water; water, 100 °C, water, 100° C. (hot water), read-out: Solubility",16000 µg/mL
same,solubility,[2],200 µg/mL
OC[C@H]1O[C@H](O[C@]2(CCl)O[C@H](CCl)[C@@H](O)[C@@H]2O)[C@H](O)[C@@H](O)[C@H]1Cl [sucralose],solubility in water,[3],freely soluble
"OC[C@H]1O[C@@H]2O[C@H]3[C@H](O)[C@@H](O)[C@@H](O[C@H]4[C@H](O)[C@@H](O)[C@@H](O[C@H]5[C@H](O)[C@@H](O)[C@@H](O[C@H]6[C@H](O)[C@@H](O)[C@@H](O[C@H]7[C@H](O)[C@@H](O)[C@@H](O[C@H]1[C@H](O)[C@H]2O)O[C@@H]7CO)O[C@@H]6CO)O[C@@H]5CO)O[C@@H]4CO)O[C@@H]3CO [α-Cyclodextrin, α-cyclodextrin]",pKa value (25° C.),[1],12.331
